“Also recorded” adds a separate entry of the source. Marks after values point to notes of the source that are not given here. Bridges are numbered along the chain shown (N, C = ends). Where no end group is shown, it is not given here.
Tests used:
mammary development = assay: Mammary development of CD female mice (TEB, branch, area in whole mounts); assay type: in vivo
Protocol: The effect of PQ401 and Somatostatin 14 (SS14) on mammary development of CD female mice was determined. FIG. 10 depicts control animals at 21 and 28 days versus 28 day old animals treated with PQ401 for 7 days and 28 day old animals treated with SS14 for 7 days.

[1] = tested on: development of breast cancer; details: women with hyperplastic lesions of the breast; cited from earlier work
[2] = tested on: pYIRS-1 (phosphorylated IRS-1), product of IGF-I action; assay: Immunostaining for phosphorylated IRS-1 in mammary gland, hGH+E2 model; assay type: in vivo, rat; details: hGH+E2 treated animals; staining most intense with hGH+E2
Excerpt: FIG. 12 depicts immunostaining for pYIRS-1 (phosphorylated IRS-1) in a representative E2 treated control (upper left), an hGH+E2 treated animal (upper right), an hGH+E2+SOM230 treated animal (lower left) and an hGH+E2+tamoxifen treated animal (lower right). The intensity of staining parallels IGF-I action as phosphorylated IRS-1 is a product of IGF-I action. In this study, staining (brown color) was most intense in response to hGH+E2 and was inhibited by both SOM230 and tamoxifen. […] This reflection of inhibition of IGF-I activity also supports the greater inhibitory effect of SOM230 over that of tamoxifen.

[3] = tested on: hGH induced TEB formation; assay: Hyperplastic terminal endbuds (TEBs) in mammary gland whole mounts, hGH+E2 model; assay type: in vivo, rat; details: hGH+E2, 7 days; reduced from 86.5 (86) TEBs in hGH+E2 control
Excerpt: At the end of 7 days one lumbar mammary gland was removed for whole mount analysis and the other for histological analysis. Hyperplastic TEBs were counted in the whole mounts. […] Representative photomicrographs of the whole mounts are provided in FIG. 5 and suppression by the different treatments is shown graphically in FIG. 6.

[4] = tested on: mammary hyperplasia induced by hGH and E2; assay: Mammary hyperplasia model induced by hGH and E2, counts in histological sections; assay type: in vivo, rat; details: for Total# / Mild# / Moderate# / Florid# / DH#: Table 3; for Total#: SOM230 30 mcg/h/kg, Octreotide 30 mcg/hr/kg, Tamoxifen 30 mg/21 day release pellet, GH + E2 control 88.3 ± 6.3; for Mild# / Moderate# / Florid# / DH#: same doses; for Mild#: GH + E2 control 4.4 ± 0.6; for Moderate#: GH + E2 control 5.3 ± 0.6; for Florid#: GH + E2 control 10 ± 0.7; for DH#: GH + E2 control 19.7 ± 1.5; for inhibitory effect on hyperplasia compared with SOM230 alone (in words): hGH+E2 model, 7 days, no dose response comparison
Excerpt: To test whether SOM230, a drug that inhibits IGF-I action on the breast, was effective, we implemented a model of hyperplasia and then determined whether the hyperplasia could be inhibited by SOM230. We administered human growth hormone (600 mcg in alzet pumps) for a week, and gave this together with estradiol (an estrogen). At the end of 7 days florid hyperplasia developed. Mammary hyperplasia was modeled by treating hypophysectomized, oophorectomized female rats with high doses human growth hormone (hGH) (600 μg in Alzet pumps) and follicular phase concentrations of estradiol (E2) administered in silastic capsules for 7 days. In the absence of hGH, these animals would not undergo mammary development. In animals receiving E2 alone, there was virtually no hyperplasia. When hGH was added to E2 there were more glands (42.2±1.4 vs. 71.9±5.4, E2 vs. E2+hGH, respectively). There was no florid hyperplasia with E2 treatment. When hGH was given also, 26.6% of the glands were hyperplastic, with 50% of those being floridly hyperplastic, 7% moderate hyperplasia and 5.9% mild hyperplasia. […] This is shown in histological sections (FIG. 1), graphically (FIG. 2) and in tabular form below (TABLE 1).
Background: Antiestrogens or aromatase inhibitors are used for breast cancer chemoprevention. These treatments cause unpleasant side effects including hot flashes and vaginal dryness. We have previously shown that IGF-I is required to permit estrogen and progesterone action in the mammary gland. […] Menopausal symptoms would not likely to occur with SOM230 since estrogen is not lowered. Material and Methods: We have approached this issue in several ways. 1) We developed a model of hyperplasia in hypophysectomized and oophorectomized female rats. Hyperplasia was induced by treatment with 600 mcg hGH and follicular phase concentrations of estradiol. Hyperplasia was assessed histologically in sections of mammary gland. 2) To assess translatability to humans we assessed cell proliferation and apoptosis in normal human breast from reduction mammoplasties and samples of usual hyperplasia. 3) We also determined availability of SST receptors in samples of atypical ductal hyperplasia and DCIS, and 4) We have begun to determine whether SOM230 will prevent hyperplasia in humans at risk for breast cancer as it does in rats.
The degree of hyperplasia was analyzed in 3 histological sections at different levels in 3 test animals given GH+E2. The different types of hyperplasia were counted. For example, the total mean number of ducts was 88.3. Of those ducts, there were 19.7 or 22.3% of total ducts that were hyperplastic. The breakdown was a mean of 10 ducts with florid hyperplasia (lumen is distended and mostly obliterated by epithelial cells), a mean of 5.3 ducts with moderate hyperplasia (an increase in cell layers to >4 cells thick), and a mean of 4.4 characterized as mild hyperplasia (no more than 4 cell thickness).
There were 4 additional treatment groups and one E2 treated control group.

Compound | TEB (number) (mammary development; 28 day old CD female mice treated 7 days, PQ401 100/kgbw ip thrice weekly, SS14 15 mcg/hr/Kg Alzet pump, 28d control 18.6 ± 1.5) | area % (mammary development; same treatment, 28d control 52.2 ± 2.0, 21d control 23 ± 3.2) [%] | prevention of the development of cancer [1] | intensity of pYIRS-1 immunostaining [2] | number of hyperplastic TEBs in whole mounts [3] | Total# [4] | Mild# [4] | Moderate# [4] | Florid# [4] | DH# [4] | inhibitory effect on hyperplasia compared with SOM230 alone (in words) [4] | inhibitory effect on hyperplasia compared with SOM230 alone (in words) ([4]; listed as tamoxifen)
Somatostatin 14: Somatostatin 14 (SS14) (AGCKNFFWKTFTSC; disulfide 3-14; ends not checked; UniProt P61278 103-116, looked up) | 18.5 ± 1.5 | 36.3 ± 6.2 |  |  |  |  |  |  |  |  |  | 
CC/C(=C(\c1ccccc1)c1ccc(OCCN(C)C)cc1)c1ccccc1 [Tamoxifen] |  |  | about 50% | inhibited; also recorded: more intense than in the SOM230 treated one | 49 | 74.2 ± 7.7 | 3.6 ± 0.4 | 4.8 ± 0.6 | 4.5 ± 0.6^e | 12.4 ± 1.5 | significantly less effective than SOM230 | significantly lower than SOM230 alone
Octreotide |  |  |  |  | 60 | 76.3 ± 7.3 | 4.6 ± 0.8 | 5.8 ± 1.0 | 5.0 ± 0.8^e | 15.4 ± 2.6 | significantly lower than SOM230 alone | 

— US20090325863A1, “Somatostatin analogs and IGF-I inhibition for breast cancer prevention” (priority 2008, published 2009)
